Results: patent US20180265911A1, “TRIPTYCENE DERIVATIVES FOR NUCLEIC ACID JUNCTION STABILIZATION” (THE TRUSTEES OF THE UNIVERSITY OF PENNSYLVANIA, priority 2015, published 2018)

How the values were obtained:
[1] = system: dsDNA; experiment: UV thermal melting of dsDNA (Example 1); format: binding; conditions: Example 1 numbering, dsDNA 2 μM, ligand 8 μM, 10 mM CacoK pH 7.2
Experimental: (§1) An aqueous solution of 10 mM potassium cacodylate (CacoK), pH 7.2 was used as analysis buffer. DNA 3WJ and dsDNA were brought to a final concentration of 1 1.1.1\4 and 2 μM, respectively. Samples were heated to 90° C. for 5 min, cooled to room temperature slowly, then to 4° C. Samples were incubated for 1 hour at room temperature with 3 μL of ligand at a final concentration of 4 μM for DNA 3WJ. The concentration of the ligand was 8 μM for dsDNA. Denaturation was recorded at 260 nm from 5° C. to 90° C. with a heating rate of 0.5° C. min^−1. Upper and lower baselines were used to plot the fraction folded.

[2] = system: DNA 3WJ; experiment: UV thermal melting of DNA 3WJ (Example 1); format: binding; conditions: Example 1 numbering, DNA 3WJ 1 μM, ligand 4 μM, 10 mM CacoK pH 7.2
Experimental: as §1

[3] = system: A2780cis cells; experiment: Alamar blue cytotoxicity assay, A2780cis; format: cell-based, human
Experimental: (§2) All cell lines were maintained in a humidified incubator at 37° C. in 5% CO2. A2780 and A2780cis cells were cultured in RPMI 1640 (Corning Cellgro) supplemented with 10% fetal bovine serum (Giboc, Life Technologies), 1% L-glutamine (Corning Cellgro), penicillin and streptomycin (Corning Cellgro). Cells were seeded at a density of 2,000 cells/well in culture media (50 pt) in […] plates 24 hours prior to treatment. Cells were treated with DMSO (vehicle control), doxorubicin (positive control, 10 μM final), cisplatin (50 μM to 25 nM), or triptycenes (50 μM to 25 nM) for 72 hours at 37° C. with 5% CO2. DMSO concentrations were kept at 1%. Alamar blue (5 μL) was added and incubated for 4 hours. Fluorescence was measured at 590 nm. The vehicle control was taken as 100% cell viability and doxorubicin was taken as 0% viability.

[4] = system: A2780 cells; experiment: Alamar blue cytotoxicity assay, A2780; format: cell-based, human; conditions: Example 1 numbering, 72 hours, viability shown at 50 μM
Experimental: as §2

[5] = system: d(CAG)n(CTG) repeat nucleic acid junction; experiment: Fluorescence quenching assay, TNR 3WJ (Example 5); format: binding; conditions: comparison in words
Experimental: Fluorescence Quenching Assay: All experiments were conducted in 50 mM sodium phosphate buffer, pH 7.2. Fluorescence measurements were recorded with excitation at 495 nm and emission at 520 nm using 5 nm bandwidths on a Tecan M1000 plate reader. […] Samples were incubated for 2h and measured in triplicate in a 384-well plate.

Which results are given for `CN(CCCN)CCCNC(=O)c1ccccc1` [Compound 4 (Example 1), N-(3-((3-aminopropyl)(methyl)amino)propyl)benzamide]?
ΔTm, dsDNA [1]: −1.3 °C; ΔTm, stabilization of DNA 3WJ [2]: 2.0 °C

How did the “viability of A2780cis cells” value ([3]; 50 µM) turn out when `NCCCCCCCNC(=O)c1ccc2c(c1)C1c3ccc(C(=O)NCCCCCCCN)cc3C2c2cc(C(=O)NCCCCCCCN)ccc21` [Trip 2 (Example 1), N^2,N^6,N^14-tris(7-aminoheptyl)-9,10-dihydro-9,10-[1,2]benzenoanthracene-2,6,14-tricarboxamide] was run?
Its value is 6%.

`CN(C)CCCNC(=O)c1ccc2c(c1)C1c3ccc(C(=O)NCCCN(C)C)cc3C2c2cc(C(=O)NCCCN(C)C)ccc21` [Trip 3 (Example 1), N^2,N^6,N^14-tris(3-(dimethylamino)propyl)-9,10-dihydro-9,10-[1,2]benzenoanthracene-2,6,14-tricarboxamide] was tested. Which “cytotoxicity in A2780cis cells” value ([3]; Example 1 numbering, cisplatin-resistant line, Alamar blue, 72 hours, viability shown at 50 μM) did it give?
Its value is “No cytotoxic activity”.

And the “cytotoxicity in A2780 cells” value [4]?
Its value is “No cytotoxic activity”.

With `NCCCCC(N)C(=O)Nc1ccc2c(c1)C1c3ccc(NC(=O)C(N)CCCCN)cc3C2c2cc(NC(=O)C(N)CCCCN)ccc21` [Trip 3 (Example 3), (2S,2'S,2″S)—N,N′,N″-(9,10-dihydro-9,10-[1,2]benzenoanthracene-2,7,15-triyl)tris(2,6-diaminohexanamide)] as the molecule, how does the “relative binding affinity toward the TNR junction” value [5] read?
The value was “highest affinity”.

`NC(Cc1cnc[nH]1)C(=O)Nc1ccc2c(c1)C1c3ccc(NC(=O)C(N)Cc4cnc[nH]4)cc3C2c2cc(NC(=O)C(N)Cc3cnc[nH]3)ccc21` [Trip 4 (Example 3), (2S,2′S,2″S)—N,N′,N″-(9,10-dihydro-9,10-[1,2]benzenoanthracene-2,7,15-triyl)tris(2-amino-3-(1H-imidazol-5-yl)propanamide)] was tested. Which “relative binding affinity toward the TNR junction” value [5] did it give?
The value was “highest affinity”.
